Counter-ions that a name gives are not always drawn.
The compounds below were run on tonic seizures induced by N-methyl-DL-aspartic acid (NMDLA) in male Swiss-Webster mice (assay: Antagonism of NMDLA-induced tonic seizures in mice). Conditions: iv; mouse, i.v. test compound 15 min before s.c. NMDLA 500 mg/kg; observed 30 min; probit analysis.
Format: in vivo, mouse (Swiss-Webster)
Procedure: Compounds of the invention were examined for their ability to antagonise tonic seizures induced by N-methyl-DL-aspartic acid (NMDLA). Groups of 8 male Swiss-Webster mice (25 to 30 g) were injected intravenously with the test compound at various doses, 15 min before s.c. administration of NMDLA (500 mg/kg). […] ED50 values for the antagonism of the NMDLA induced tonic seizures were determined using probit analysis.

Compound	ED50
CC12Cc3ccc(Br)cc3CC(N1)c1ccccc12 (stereo not drawn) [Example 3, 2-Bromo-6-methyl-5,6,11,12-tetrahydrodibenzo[a,e]cycloocten-6.11-imine hydrochloride]	< 5 mg/kg
CC12Cc3ccccc3CC(N1)c1ccccc12 (stereo not drawn) [Example 1, 6-Methyl-5,6,11,12-tetrahydrodibenzo[a,e]cycloocten-6,11-imine Hydrochloride]	< 5 mg/kg
CC12Cc3ccccc3CC(C)(N1)c1ccccc12 [Example 16, 6,11-Dimethyl-5,6,11,12-tetrahydrodibenzo[a,e]cycloocten-6,11-imine hydrochloride]	< 5 mg/kg
CC12Cc3ccccc3CC(O)(N1)c1ccccc12 (stereo not drawn) [Example 15, 11-Hydroxy-6-methyl-5,6,11,12-tetrahydrodibenzo[a,e]cycloocten-6,11-imine hydrochloride]	< 5 mg/kg

The compounds below were run on responses to NMDA in rat cortical slice (assay: Rat cortical slice: antagonism of responses to NMDA). Conditions: from righthand shift in NMDA concentration-response curve, read-out: apparent equilibrium constant (Kb).
Format: cell-based
Procedure: The effects of compounds of the invention on responses to NMDA were assessed using the rat cortical slice as described by Wong et al., Proc. Natl. Acad. Sci. USA, 1986, 83, 7104. The apparent equilibrium constant (Kb) was calculated from the righthand shift in the NMDA concentration-response curve produced by the compound under test.

Compound	Kb
COc1ccc2c(c1)CC1NC(C)(C2)c2ccccc21 (stereo not drawn) [Example 12, 2-Methoxy-6-methyl-5,6,11,12-tetrahydrodibenzo [a,e]cycloocten-6,11-imine hydrochloride]	< 2000 nM
CC12Cc3ccc(O)cc3CC(N1)c1ccccc12 (stereo not drawn) [Example 13, 2-Hvdroxy-6-methyl-5,6,11,12-tetrahydrodibenzo[a,e]cycloocten-6.11-imine hydrochloride]	< 2000 nM

Source: patent US4927819A, “Cyclo-octane neuroprotective agents” (Merck Sharp & Dohme Limited, priority 1987, dated 1990)
